Measured values from patent US8541581B2, “Inhibitors of fatty acid amide hydrolase” (Infinity Pharmaceuticals, Inc., priority 2009, dated 2013).

The molecules below were run against T1, human FAAH (Homo sapiens, UniProt O00519) (assay: Human FAAH fluorescence-based inhibition assay (AMC Arachidonoyl Amide hydrolysis)). Conditions: human FAAH from transfected COS-7 cells; 20 μM AMC-Arachidonoyl substrate; 30 min preincubation, 4 hours at room temperature.
T1 construct: host or cells: COS-7 cells, transient transfection; 13,000 g membrane fraction solubilized in 1% Triton X-100
T1 sequence (O00519 1-579): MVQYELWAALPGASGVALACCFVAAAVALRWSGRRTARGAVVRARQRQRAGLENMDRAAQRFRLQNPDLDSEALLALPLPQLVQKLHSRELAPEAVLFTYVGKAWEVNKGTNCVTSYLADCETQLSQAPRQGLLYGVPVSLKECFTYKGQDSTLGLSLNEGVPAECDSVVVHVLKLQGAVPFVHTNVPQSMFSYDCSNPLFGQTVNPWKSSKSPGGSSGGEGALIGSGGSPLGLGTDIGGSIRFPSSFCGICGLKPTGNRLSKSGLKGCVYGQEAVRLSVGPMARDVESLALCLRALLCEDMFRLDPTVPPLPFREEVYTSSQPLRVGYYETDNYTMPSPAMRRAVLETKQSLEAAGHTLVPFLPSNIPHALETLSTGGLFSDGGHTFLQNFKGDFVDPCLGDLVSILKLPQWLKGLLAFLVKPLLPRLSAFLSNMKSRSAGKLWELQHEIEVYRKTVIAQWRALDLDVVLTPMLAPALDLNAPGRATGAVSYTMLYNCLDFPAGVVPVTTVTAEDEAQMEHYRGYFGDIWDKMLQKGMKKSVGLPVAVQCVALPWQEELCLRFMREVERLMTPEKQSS
Type: biochemical
Procedure: Exemplary compounds are set forth in the Examples provided below. Compounds were assayed as inhibitors of human FAAH using the method described in detail in Example 19.
The following assays can be used to determine the inhibition of FAAH: (1) a fluorescence-based assay (Manjunath et al., Analytical Biochemistry (2005) 343:143-151); and (2) a microsome-based fluorescent assay (Wang et al., Biomolecular Screening (2006) 1-9).
COS-7 cells were split the day before, 1:5 into 150 mm×25 mm cell culture dishes (Corning Inc., Cat. No. 430599). Transient transfection took place at 30-40% confluency according to FuGENE 6 Transfection Reagent (Roche, Cat. No. 11814 443 001).
The FuGENE transfection 6 reagent (45 uL) was added to 1410 μL of media (DMEM, serum free without pen/strep) in a 15 mL conical tube and incubated at room temp for 5 minutes, followed by the addition of FAAH plasmid DNA ([…]) (OriGene Cat. No. TC119221, Genbank Accession No. NM_001441.1, 0.67 ug/uL) and a further incubation of 15 minutes at room temperature. The resulting solution was added into one dish of 30-40% confluent COS-7 cells in a drop-wise manner. The COS-7 cell dish was subsequently incubated for 48 hours. The cells were then harvested.
Media was aspirated from the dishes and the cells rinsed with 10 mL PBS. The PBS was removed and 3 mL of PBS added to the dish. The dish was scraped to resuspend the cells, and the subsequent cell suspension collected into a 15 mL conical tube. The cells were pelleted by centrifugation at 1200 rpm for 5 minutes in a bench top centrifuge. PBS was removed and the cell pellet snap frozen in liquid nitrogen and stored at −80° C.
COS-7 Cells—FAAH Purification: • (1) Fractionation: Frozen cell pellets from transient transfections were thawed on ice and resuspended in 12.5 mM Hepes pH 8.0, 100 mM NaCl, 1 mM EDTA (10 mL/0.2 g cell pellet). The pellets were dounce homogenized and then sonicated to produce cell extract. The cell extract was subsequently centrifuged at 1000 g to remove cellular debris. The pellet was discarded and the supernatant centrifuged at 13,000 g for 20 minutes. The pellet contained membrane bound FAAH. The supernatant was discarded and the pellet resolubilized. • (2) Re-solubilization: The fraction of interest, (13,000 g, membrane fraction) was re-suspended in 2.3 mL re-suspension buffer (20 mM Hepes pH 7.8, 10% v/v Glycerol, 1 mM EDTA, 1% Triton X-100) and the sample incubated on ice for 1 hour and then centrifuged to remove any particulate matter. The supernatant containing solubilized human FAAH was aliquoted and snap frozen in liquid nitrogen and stored at −80° C. until use. • (3) Characterization: Protein Concentration determined by Bradford assay. • SDS gel and Western blot to confirm presence of FAAH • FAAH activity assay • Km determination—96-well assay • Linear dependence—96-well assay • Standard compound Ki determination—384-well assay
Rat FAAH biochemical assays were carried out in a 96 well flat bottom black non-treated polystyrene plates (Corning Costar Catalogue #3915). FAAH reaction buffer: 50 mM Hepes (pH 7.5), 1 mM EDTA, 0.2% Triton X-100. FAAH substrate-AMC Arachidonoyl Amide (Cayman Chemicals Company, Catalog #10005098). The reaction was read in an Envision microtiter plate reader [Excitation filter 355 nm (40 nm bandpass); Emission filter 460 nm (25 nm bandpass)]. The raw fluorescence was plotted on the y axis and the inhibitor concentration on the x axis to give a dose response inhibition curve. The data was fitted to a single site competitive inhibition equation, fixing the Km for the rat and human enzyme to 12 μM and 9 μM respectively.
The principle of this assay was the hydrolysis of AMC-Arichodonoyl, a fluorescent analogue of Anandamide, which results in the formation of Arachidonic acid and AMC. The formation of AMC results in an increase in fluorescence (see, for example, Manjunath et al., Analytical Biochemistry (2005) 343:143-151; and Wang et al., Biomolecular Screening (2006) 1-9). […]
With `CC(C)(C)OC(=O)N1CC=C(B(O)O)CC1` [Example 1] the Ki was 100 to 1000 nM. `O=C(OCc1ccccc1)N1CC=C(B(O)O)CC1` [Example 2] showed a Ki of 10 to 100 nM. `CC(=O)N1CC=C(B(O)O)CC1` [Example 3] gave a Ki greater than 1000 nM. Molecule `O=C(c1ccc(Cl)cc1)N1CC=C(B(O)O)CC1` [Example 4] has a Ki of 10 to 100 nM. With `Cc1c(C(=O)N2CC=C(B(O)O)CC2)sc2ccccc12` [Example 5] the Ki was 10 to 100 nM. For `Cc1c(CC(=O)N2CC=C(B(O)O)CC2)sc2ccccc12` [Example 6], the Ki was 10 to 100 nM. Molecule `O=C(NCc1ccccc1)N1CC=C(B(O)O)CC1` [Example 7] has a Ki of 10 to 100 nM. `CC(C)(C)OC(=O)N1CCC(B(O)O)CC1` [Example 8] gave a Ki of 10 to 100 nM. `O=C(OCc1ccccc1)N1CCC(B(O)O)CC1` [Example 9] gave a Ki of 10 to 100 nM. `O=C(CCCCc1ccccc1)N1CCC(B(O)O)CC1` [Example 10] gave a Ki of 10 to 100 nM. With `O=C(c1ccc(Cl)cc1)N1CCC(B(O)O)CC1` [Example 11] the Ki was 100 to 1000 nM. `O=C(c1cnc2ccccc2c1)N1CCC(B(O)O)CC1` [Example 12] was tested, and the Ki was 100 to 1000 nM. `O=C(c1ccc2ccccc2n1)N1CCC(B(O)O)CC1` [Example 13] was tested, and the Ki was 100 to 1000 nM. With `O=C(CNCc1ccccc1)N1CCC(B(O)O)CC1` [Example 14] the Ki was greater than 1000 nM. `O=C([C@H]1CCCN1)N1CCC(B(O)O)CC1` [Example 15] showed a Ki greater than 1000 nM. `Cc1ccc(S(=O)(=O)N2CCC(B(O)O)CC2)cc1` [Example 16] was tested, and the Ki was 100 to 1000 nM. For `OB(O)C1CCN(Cc2ccccc2)CC1` [Example 17], the Ki was greater than 1000 nM. Work on `Cc1c(CN2CCC(B(O)O)CC2)sc2ccccc12` [Example 18] yielded a Ki of 10 to 100 nM.
